Data reported in patent publication US9346830B2, “Method for producing amino acid chelate compounds, amino acid chelate compounds and use of amino acid chelate compounds” (ISF AG, priority 2011, dated 2016).

How the values were obtained:
[1] = for pH value upon addition to water: 45° C., aqueous solution
Experimental: The procedure for both syntheses was identical so that they are summarized here. 54 g of CaO or respectively MgO were each subjected to a 10-minute activation. In order to have a sufficiently high operating temperature for the thermal activation, the empty mill was already brought to an operating temperature of 110° C. before the experiments. After the mechanical activation, a thermal activation of respectively 15 min. took place in both cases.

bulk material properties = format: physicochemical; conditions: water content <2%
Excerpt: The grain shape was examined with the scanning electron microscope and produced the typical, needle-shaped crystals of the glycinates and their agglomerates. With respect to the bulk material properties, the particle distribution analysis found a d50 value of 50 μm. The material is free-flowing, has a water content of <2% and is stable.

With `[O]=[Mg]` [MgO] the “stability (non-dissolution) in the presence of HCl” value [1] was “stable up to pH 0”.
For `NCC(=O)[O-].NCC(=O)[O-].[Cu+2]` [Example 1, bis (glycinato) copper], the “stability of the material” value (bulk material properties) was “stable”.
For `NCC(=O)[O-].NCC(=O)[O-].[Mg+2]` [magnesium glycinate], the “pH value upon addition to water” value [1] was 8.
For `NCC(=O)[O-].NCC(=O)[O-].[Ca+2]` [calcium glycinate], the “pH value upon addition to water” value [1] was 7.5.
